Test results published in ChEMBL document CHEMBL4311950, “Hip To Be Square: Oxetanes as Design Elements To Alter Metabolic Pathways” (J Med Chem, 2019).
Values after ≈ are worked out from the molar mass of the structure shown.

Columns and labels:
physchem [1] = details: buffer, pH 7.4
Description: Aqueous solubility of the compound in pH 7.4 HBSS buffer HPLC-MS analysis

physchem [2] = details: octanol/water, pH 7.4
Description: Octanol-water distribution coefficient, log D of the compound at pH 7.4 by RP-HPLC analysis

physchem [3] = details: pH 2.3
Description: Dissociation constant, pKa of compound at pH 2.3 to 10.8 by pressure assisted capillary electrophoresis-MS analysis

in vitro [4] = details: human, hepatocytes
Description: Intrinsic clearance in human hepatocytes assessed per million cells at 50 uM in presence of NADPH by HPLC-MS analysis

in vitro [5] = details: human, liver microsomes
Description: Intrinsic clearance in human liver microsomes at 50 uM in presence of NADPH by HPLC-MS analysis

| Structure (SMILES) | solubility (physchem [1]) | logD (physchem [2]) | pKa (physchem [3]) | hepatocyte CLint at 50 µM (in vitro [4]) | microsomal CLint at 50 µM (in vitro [5]) |
| --- | --- | --- | --- | --- | --- |
| O=C(c1nnc(-c2ccccc2)o1)N1CC(Oc2ccc(CN3CC4(COC4)C3)cc2Cl)C1 | 76 µM (≈ 35.5 µg/mL) | 2.7 | 7.5 | 12.4 µL/min/1e6 cells |  |
| O=C(c1nnc(-c2ccccc2)o1)N1CC(Oc2ccc(CN3CC4(COC4)C3)cc2)C1 | 89 µM (≈ 38.5 µg/mL) |  | 8 | 6.1 µL/min/1e6 cells |  |
| COc1cc(OC2CN(C(=O)c3nnc(-c4ccc(C(F)F)cc4)o3)C2)ccc1CN1CC2(COC2)C1 | 87 µM (≈ 44.6 µg/mL) | 2.1 | 8.2 | 19.4 µL/min/1e6 cells |  |
| Cc1cc(OC2CN(C(=O)c3nnc(-c4ccccc4)o3)C2)ccc1CN1CCCC2(COC2)C1 |  | 3.6 | 7.6 |  |  |
| COc1cc(OC2CN(C(=O)c3nnc(-c4ccccc4)o3)C2)ccc1CN1CCCC12COC2 | 60 µM (≈ 28.6 µg/mL) | 3.8 | 8 | 27.5 µL/min/1e6 cells |  |
| COc1cc(CN2CCCC23COC3)ccc1OC1CN(C(=O)c2nnc(-c3ccccc3)o2)C1 | 221 µM (≈ 105 µg/mL) | 3.5 | 6 | 25 µL/min/1e6 cells |  |
| O=C(NC1C2CC3CC1CC(O)(C3)C2)c1cnc(NC2COC2)nc1C1CC1 (configuration not stated) | 580 µM (≈ 223 µg/mL) | 1.1 | 2.8 |  | < 2 µL/min/mg |
| O=C(NC1C2CC3CC1CC(O)(C3)C2)c1cnc(OC2COC2)nc1C1CC1 (configuration not stated) | 867 µM (≈ 334 µg/mL) | 2 |  |  | < 2 µL/min/mg |
| COc1ccc(CN2CC3(COC3)C2)cc1 | 364 µM (≈ 79.8 µg/mL) | 0.4 | 8.25 |  | < 3 µL/min/mg |
| O=C(NC1C2CC3CC1CC(O)(C3)C2)c1cnc(OC2COC2)nc1C1CCCC1 (configuration not stated) | 476 µM (≈ 197 µg/mL) | 1.9 | 2.6 |  | 2.8 µL/min/mg |
| COc1ccc(-c2nnc(C(=O)N3CC(Oc4ccc(CN5CC6(CCOC6)C5)cc4)C3)o2)cc1 | 82 µM (≈ 39.1 µg/mL) |  |  | 10.8 µL/min/1e6 cells |  |
| COc1ccc(CN2CCCC3(COC3)C2)cc1 | 744 µM (≈ 184 µg/mL) | 1.5 | 8.08 |  | 28.3 µL/min/mg |
| COc1ccc(-c2nnc(C(=O)N3CC(Oc4ccc(CNCC5(C)COC5)cc4)C3)o2)cc1 | 61 µM (≈ 28.3 µg/mL) | 2 | 8.2 |  | 103 µL/min/mg |

Second part, the molecule after the results:

| solubility (physchem [1]) | logD (physchem [2]) | pKa (physchem [3]) | hepatocyte CLint at 50 µM (in vitro [4]) | microsomal CLint at 50 µM (in vitro [5]) | Structure (SMILES) |
| --- | --- | --- | --- | --- | --- |
| 3 µM (≈ 1.4 µg/mL) |  |  |  | > 300 µL/min/mg | COc1ccc(-c2nnc(C(=O)N3CC(Oc4ccc(COCC5(C)COC5)cc4)C3)o2)cc1 |
| > 2520 µM | 1.6 | 2.4 |  | < 3.5 µL/min/mg | O=C(NC1C2CC3CC1CC(O)(C3)C2)c1cnc(NC2COC2)nc1C1CCC1 (configuration not stated) |
| 3 µM (≈ 1.39 µg/mL) | 2.9 | 7.3 | 38 µL/min/1e6 cells |  | COc1ccc(-c2nnc(C(=O)N3CC(Oc4ccc(CN5CC6CC(C5)O6)cc4)C3)o2)cc1 |
| 51 µM (≈ 25.4 µg/mL) | 2.5 |  | 27.2 µL/min/1e6 cells |  | O=C(c1nnc(-c2ccc(OC(F)F)cc2)o1)N1CC(Oc2ccc(CN3CC4(COC4)C3)cc2)C1 |
| 82 µM (≈ 42 µg/mL) | 2.2 | 8.9 | 19.5 µL/min/1e6 cells |  | COc1cc(CN2CC3(COC3)C2)ccc1OC1CN(C(=O)c2nnc(-c3ccc(C(F)F)cc3)o2)C1 |
| 610 µM (≈ 142 µg/mL) | 1.8 |  |  | 8.1 µL/min/mg | COc1ccc(CN2CCCC23COC3)cc1 |
| 750 µM (≈ 186 µg/mL) | 0.8 | 8.56 |  | 20.6 µL/min/mg | COc1ccc(CN2CCC3(CC2)COC3)cc1 |
| 90 µM (≈ 42 µg/mL) | 3 | 7.7 | 32.7 µL/min/1e6 cells |  | O=C(c1nnc(-c2ccccc2)o1)N1CC(Oc2ccc(CN3CC4(COC4)C3)c(Cl)c2)C1 |
| 735 µM (≈ 331 µg/mL) | 2 | 8.2 | 1.9 µL/min/1e6 cells |  | O=C(c1nnc(-c2ccc(F)cc2)o1)N1CC(Oc2ccc(CN3CC4(COC4)C3)cc2)C1 |
| 74 µM (≈ 35.3 µg/mL) | 2.5 | 8.4 | 18.6 µL/min/1e6 cells |  | COc1ccc(-c2nnc(C(=O)N3CC(Oc4ccc(CN5CC6(COC6)C5)cc4C)C3)o2)cc1 |
|  | 3 | 8 |  |  | COc1ccc(-c2nnc(C(=O)N3CC(Oc4ccc(CN(C)CC5(C)COC5)c(C)c4)C3)o2)cc1 |
| 43 µM (≈ 22.6 µg/mL) | 4.2 | 7 | 42.7 µL/min/1e6 cells |  | COc1cc(OC2CN(C(=O)c3nnc(-c4ccc(C(F)F)cc4)o3)C2)ccc1CN1CCCC12COC2 |
| 3 µM (≈ 1.43 µg/mL) |  | 6 | 48.7 µL/min/1e6 cells |  | COc1ccc(-c2nnc(C(=O)N3CC(Oc4ccc(CN5CCCC56COC6)cc4)C3)o2)cc1 |
| 86 µM (≈ 41.5 µg/mL) | 2.4 | 8.5 | 5.3 µL/min/1e6 cells |  | O=C(c1nnc(-c2ccc(C(F)F)cc2)o1)N1CC(Oc2ccc(CN3CC4(COC4)C3)cc2)C1 |
| 818 µM (≈ 327 µg/mL) | 1.6 |  |  | 6.1 µL/min/mg | O=C(NC1C2CC3CC1CC(O)(C3)C2)c1cnc(OC2COC2)nc1C1CCC1 (configuration not stated) |
| > 1820 µM | 2.1 | 2.6 |  | < 2 µL/min/mg | O=C(NC1C2CC3CC1CC(O)(C3)C2)c1cnc(NC2COC2)nc1C1CCCC1 (configuration not stated) |
| 495 µM (≈ 236 µg/mL) |  |  | 10.4 µL/min/1e6 cells |  | COc1ccc(-c2nnc(C(=O)N3CC(Oc4ccc(CN5CC6(CCCO6)C5)cc4)C3)o2)cc1 |
| 39 µM (≈ 20.5 µg/mL) | 3.8 | 6.1 | 38.5 µL/min/1e6 cells |  | COc1cc(CN2CCCC23COC3)ccc1OC1CN(C(=O)c2nnc(-c3ccc(C(F)F)cc3)o2)C1 |
| 73 µM (≈ 34.8 µg/mL) | 2.6 | 8.2 | 17 µL/min/1e6 cells |  | COc1ccc(-c2nnc(C(=O)N3CC(Oc4ccc(CN5CC6(COC6)C5)c(C)c4)C3)o2)cc1 |
